Experimental data from publication PMC7031696 (Cell chemical biology, 2019).
“Also recorded” adds a separate entry of the source. Where two headings read alike, the source gives them in different places. Values belong to the molecule of their own block, whether it stands above or below them.

What was measured:
[1] = tested on: Plasmodium falciparum 3D7-A10 parasites; test: Stage specificity assay (8-h exposure of synchronized stages, IC50^8h); type: cell-based; conditions: for IC50: Plasmodium falciparum
[2] = tested on: asynchronous 3D7-A10 parasite cultures; test: Standard 72-h exposure asexual blood stage susceptibility assay (IC50^72h); type: cell-based, Plasmodium falciparum; conditions: Plasmodium falciparum, 3D7, 72 h, read-out: Overall (72hr assay) Mean IC50 (IC50^72h)
physchem = conditions: pH 7.4, aqueous buffer, kinetic from dmso stock
[3] = tested on: 3D7-MR4 trophozoite parasite-infected RBCs; test: Metabolomic profiling (hydrophilic metabolite changes, UHPLC-MS); type: cell-based, Plasmodium falciparum
[4] = tested on: 3D7-MR4 trophozoite parasite-infected RBCs; conditions: 10 × IC50^72h; ref Allman et al., 2016; cited from earlier work
[5] = 3D7, read-out: Early rings Mean IC50 (IC50^8h), 8-h exposure 0–8 hr, 3D7-A10, survival at 60 h
[6] = 3D7, read-out: Early trophozoites Mean IC50 (IC50^8h), 8-h exposure 16–24 hr, 3D7-A10, survival at 60 h
[7] = 3D7, read-out: Late rings Mean IC50 (IC50^8h), 8-h exposure 8–16 hr, 3D7-A10, survival at 60 h
[8] = 3D7, read-out: Late trophozoites Mean IC50 (IC50^8h), 8-h exposure 24–32 hr, 3D7-A10, survival at 60 h
[9] = 3D7, read-out: Schizonts Mean IC50 (IC50^8h), 8-h exposure 32–40 hr, 3D7-A10, survival at 60 h

- IC50 [2]: 0.001 µM
- solubility at 1.5 h (physchem): ≥ 500 µM
SMILES: C[C@H]1[C@@H](O)O[C@@H]2O[C@@]3(C)CC[C@H]4[C@H](C)CC[C@@H]1[C@@]24OO3 [Dihydroartemisinin, reference compound]
- overall activity profile (stages on which active) ([1]; 8-h exposures): activity on all stages
- IC50 [1, 5]: 0.0015 µM
- IC50 [1, 6]: 0.0024 µM
- IC50 [1, 7]: 0.0024 µM
- IC50 [1, 8]: 0.0039 µM
- IC50 [1, 9]: 0.0116 µM
- Stage of peak activity (Figure 6) ([1]; period when the parasite was most susceptible (lowest IC50^8h)): ring and trophozoite stages; also recorded: rings and trophozoites

- Ratio lowest IC50 8hr/IC50 72hr ([1]; 3D7-A10): 4.4
- IC50 ([1]; 3D7, 8 h, read-out: IC50^8h values at all tested stages, 8-h exposures, all asexual blood stages): > 1 µM
- IC50 [2]: 0.306 µM
SMILES: COCCNCC(O)Cn1c2ccc(Cl)cc2c2cc(Cl)ccc21 (stereo not shown) [MMV019017]
- IC50 [1, 5]: 8.42 µM
- IC50 [1, 6]: 1.34 µM
- IC50 [1, 7]: 8.66 µM
- IC50 [1, 8]: 1.71 µM
- IC50 [1, 9]: 3.06 µM
- Log2(fold changes) 3-phosphoglycerate ([3]; metabolite 3-phosphoglycerate, log2 fold change): -0.1375
- Log2(fold changes) 4-Pyridoxic acid ([3]; metabolite 4-Pyridoxic acid, log2 fold change): 0.0658
- Log2(fold changes) 4-aminobutyrate ([3]; metabolite 4-aminobutyrate, log2 fold change): 1.1150
- Log2(fold changes) 4-phosphopantetheine ([3]; metabolite 4-phosphopantetheine, log2 fold change): 0.0000
- Log2(fold changes) 4-phosphopantothenate ([3]; metabolite 4-phosphopantothenate, log2 fold change): -1.0497
- Log2(fold changes) 5-aminopentanoic acid ([3]; metabolite 5-aminopentanoic acid, log2 fold change): 0.0000
- Log2(fold changes) 5-methyl-THF ([3]; metabolite 5-methyl-THF, log2 fold change): 0.0000
- Log2(fold changes) 5-phosphoribosyl-1-pyrophosphate ([3]; metabolite 5-phosphoribosyl-1-pyrophosphate, log2 fold change): -1.1636
- Log2(fold changes) 6-phospho-D-gluconate ([3]; metabolite 6-phospho-D-gluconate, log2 fold change): -0.4356
- Log2(fold change) HVDD ([3]; metabolite HVDD): 0.0000
- Log2(fold change) Hydroxyisocaproic acid ([3]; metabolite Hydroxyisocaproic acid): 0.0000
- Log2(fold change) IDP ([3]; metabolite IDP): 0.0000
- Log2(fold change) IMP ([3]; metabolite IMP): 0.0176
- Log2(fold change) Inositol ([3]; metabolite Inositol): 0.0000
- Log2(fold change) Isopentyl-PP ([3]; metabolite Isopentyl-PP): 0.0000
- Log2(fold change) L-arginino-succinate ([3]; metabolite L-arginino-succinate): 0.0000
- Log2(fold change) LD ([3]; metabolite LD): -2.3846
- Log2(fold change) Myristoyl/tetradecanoyl-CoA ([3]; metabolite Myristoyl/tetradecanoyl-CoA): 0.0000
- Log2(fold change) N-Acetyl-L-alanine ([3]; metabolite N-Acetyl-L-alanine): -0.1766
- Log2(fold change) N-acetyl-L-ornithine ([3]; metabolite N-acetyl-L-ornithine): -1.7936
- Log2(fold change) N-acetyl-glucosamine-1/6-phosphate ([3]; metabolite N-acetyl-glucosamine-1/6-phosphate): -1.5222
- Log2(fold change) N-acetyl-glutamate ([3]; metabolite N-acetyl-glutamate): 0.3951
- Log2(fold change) N-acetyl-glutamine ([3]; metabolite N-acetyl-glutamine): 0.6689
- Log2(fold change) N-carbamoyl-L-aspartate ([3]; metabolite N-carbamoyl-L-aspartate): -1.9472
- Log2(fold change) NAD+ ([3]; metabolite NAD+): -0.1399
- Log2(fold change) NADH ([3]; metabolite NADH): 0.8540
- Log2(fold change) NADP+ ([3]; metabolite NADP+): 0.2168
- Log2(fold change) NADPH ([3]; metabolite NADPH): 0.4083
- Log2(fold change) O-acetyl-L-serine ([3]; metabolite O-acetyl-L-serine): 0.0000
- Log2(fold change) Octoluse 8/1P ([3]; metabolite Octoluse 8/1P): -0.2135
- Log2(fold change) Octoluse Bisphosphate ([3]; metabolite Octoluse Bisphosphate): -5.4193
- Log2(fold change) PD ([3]; metabolite PD): -1.1341
- Log2(fold change) PE ([3]; metabolite PE): 0.0923
- Log2(fold change) PEE ([3]; metabolite PEE): 0.2942
- Log2(fold change) PEEK ([3]; metabolite PEEK): -0.4238
- Log2(fold change) PVNF ([3]; metabolite PVNF): -4.6843
- Log2(fold change) Pyroglutamic acid ([3]; metabolite Pyroglutamic acid): 0.4950
- Log2(fold change) Pyrophosphate ([3]; metabolite Pyrophosphate): -2.5918
- Log2(fold change) Ribose-5-phosphate ([3]; metabolite Ribose-5-phosphate): 0.0000
- Log2(fold change) S-adenosyl-L-homocysteine ([3]; metabolite S-adenosyl-L-homocysteine): -0.4383
- Log2(fold change) S-adenosyl-L-methioninamine ([3]; metabolite S-adenosyl-L-methioninamine): 0.0000
- Log2(fold change) S-adenosyl-L-methionine ([3]; metabolite S-adenosyl-L-methionine): 0.0000
- Log2(fold change) S-methyl-5'-thioadenosine ([3]; metabolite S-methyl-5'-thioadenosine): 0.0000
- Log2(fold change) SD ([3]; metabolite SD): -1.6540
- Log2(fold change) SDL ([3]; metabolite SDL): 0.0000
- Log2(fold change) SID ([3]; metabolite SID): 0.0000
- Log2(fold change) Sedoheptulose bisphosphate ([3]; metabolite Sedoheptulose bisphosphate): -1.7256
- Log2(fold change) Thiamine pyrophosphate ([3]; metabolite Thiamine pyrophosphate): 0.0000
- Log2(fold changes) UDP-D-glucose ([3]; metabolite UDP-D-glucose, log2 fold change): 0.0449
- Log2(fold changes) UDP-D-glucuronate ([3]; metabolite UDP-D-glucuronate, log2 fold change): -0.4277
- Log2(fold changes) UDP-N-acetyl-glucosamine ([3]; metabolite UDP-N-acetyl-glucosamine, log2 fold change): -0.2402
- Log2(fold changes) UDP ([3]; metabolite UDP, log2 fold change): -1.4536
- Log2(fold changes) UMP ([3]; metabolite UMP, log2 fold change): -0.1145
- Log2(fold changes) UTP ([3]; metabolite UTP, log2 fold change): -1.8511
- Log2(fold change) hydroxyphenylpyruvate ([3]; metabolite hydroxyphenylpyruvate): 0.0000
- Log2(fold change) hydroxyproline/Aminolevulinate ([3]; metabolite hydroxyproline/Aminolevulinate): 0.0000
- Log2(fold change) hypoxanthine ([3]; metabolite hypoxanthine): 1.0399
- Log2(fold change) indole ([3]; metabolite indole): 0.2468
- Log2(fold change) inosine ([3]; metabolite inosine): 0.3793
- Log2(fold change) isoleucine ([3]; metabolite isoleucine): 0.0000
- Log2(fold change) lactate ([3]; metabolite lactate): -0.6725
- Log2(fold change) leucine ([3]; metabolite leucine): 0.0000
- Log2(fold change) lysine ([3]; metabolite lysine): 0.0000
- Log2(fold change) malate ([3]; metabolite malate): 0.0811
- Log2(fold change) maleic acid ([3]; metabolite maleic acid): 0.0000
- Log2(fold change) methionine ([3]; metabolite methionine): 0.0000
- Log2(fold change) myo-inositol ([3]; metabolite myo-inositol): -2.8253
- Log2(fold change) nicotinamide mononucleotide ([3]; metabolite nicotinamide mononucleotide): 0.0000
- Log2(fold change) nicotinate ([3]; metabolite nicotinate): 1.9078
- Log2(fold change) ornithine ([3]; metabolite ornithine): 0.0801
- Log2(fold change) orotate ([3]; metabolite orotate): 1.9702
- Log2(fold change) orotidine-5'-phosphate ([3]; metabolite orotidine-5'-phosphate): 0.0000
- Log2(fold change) oxaloacetate ([3]; metabolite oxaloacetate): 0.0000
- Log2(fold change) p-aminobenzoate ([3]; metabolite p-aminobenzoate): 0.0000
- Log2(fold change) p-hydroxybenzoate ([3]; metabolite p-hydroxybenzoate): 0.7031
- Log2(fold change) pantothenate ([3]; metabolite pantothenate): 0.0000
- Log2(fold change) phenylalanine ([3]; metabolite phenylalanine): 0.0000
- Log2(fold change) phenylpyruvate ([3]; metabolite phenylpyruvate): 1.2139
- Log2(fold change) phosphoenolpyruvate ([3]; metabolite phosphoenolpyruvate): 0.7560
- Log2(fold change) prephenate ([3]; metabolite prephenate): 0.0000
- Log2(fold change) proline ([3]; metabolite proline): 0.0000
- Log2(fold change) pyridoxine ([3]; metabolite pyridoxine): 0.0000
- Log2(fold change) pyruvate ([3]; metabolite pyruvate): -0.9980
- Log2(fold change) riboflavin ([3]; metabolite riboflavin): 0.0000
- Log2(fold change) ribose ([3]; metabolite ribose): 0.0000
- Log2(fold change) ribose-phosphate ([3]; metabolite ribose-phosphate): -0.9470
- Log2(fold change) ribulose-5-phosphate ([3]; metabolite ribulose-5-phosphate): 0.0000
- Log2(fold change) serine ([3]; metabolite serine): 0.0000
- Log2(fold change) sn-glycerol-3-phosphate ([3]; metabolite sn-glycerol-3-phosphate): 0.0194
- Log2(fold change) succinate/Methylmalonic acid ([3]; metabolite succinate/Methylmalonic acid): 0.4365
- Log2(fold change) succinyl-CoA/methylmalonyl-CoA ([3]; metabolite succinyl-CoA/methylmalonyl-CoA): 0.0000
- Log2(fold change) taurine ([3]; metabolite taurine): 0.0000
- Log2(fold change) thiamine ([3]; metabolite thiamine): 0.0000
- Log2(fold change) threonine/homoserine ([3]; metabolite threonine/homoserine): 0.0000
- Log2(fold change) thymidine ([3]; metabolite thymidine): -1.7681
- Log2(fold changes) thymine ([3]; metabolite thymine, log2 fold change): -1.7003
- Log2(fold changes) trehalose-6-Phosphate ([3]; metabolite trehalose-6-Phosphate, log2 fold change): 0.0000
- Log2(fold changes) tryptophan ([3]; metabolite tryptophan, log2 fold change): 0.0000
- Log2(fold changes) tyrosine ([3]; metabolite tyrosine, log2 fold change): 0.0000
- Log2(fold changes) uridine ([3]; metabolite uridine, log2 fold change): -0.5758
- levels of cAMP [4]: decreased
- levels of the deoxyribonucleotides dAMP and dTMP [4]: increased
- nucleoside di- and tri-phosphate levels (GDP, UDP, GTP, dATP, dGTP/ATP, dUTP) [4]: decreased
- peptide levels (hemoglobin catabolism signature) [4]: decreased peptide levels
